Experimental data reported in PMC7038240 (Antimicrobial Agents and Chemotherapy, 2020).
Where two headings read alike, the source gives them in different places.

Columns and labels:
Type in all cases: cell-based
[1] = system: K. pneumoniae; experiment: microbe, parasite or virus in culture; conditions: Klebsiella pneumoniae, read-out: MIC
From the text: (§1) The antibacterial activity of cefepime-taniborbactam was compared to that of ceftazidime-avibactam, ceftolozane-tazobactam, and cefepime-tazobactam against a diverse panel of Enterobacterales and P. aeruginosa clinical isolates with defined β-lactamase subtypes (see Table S1 in the supplemental material). IMP-producing strains were excluded, as none of the BLI-protected cephalosporins inhibited IMP sufficiently to provide a clinically relevant rescue of the partner β-lactam, a characteristic also shared by approved BLI-protected carbapenems (meropenem-vaborbactam and imipenem-relebactam). […] The antibacterial activity of the cephalosporins alone was included to ascertain the level of potentiation by the partnered BLI. BLIs were tested at a fixed concentration of 4 μg/ml in all combinations except cefepime-tazobactam, where tazobactam was fixed at a concentration of 8 μg/ml ([38]). The collection comprised 143 clinical isolates collected from 2005 and 2018.
(§2) The in vitro antibacterial activity of the β-lactams alone or in combination with the BLIs was determined in cation-adjusted Mueller-Hinton broth (CAMHB) microdilution assays according to CLSI recommendations ([51]). […]. The inocula for the broth microdilution assays were prepared by the broth culture method ([51]). […]

[2] = system: P. aeruginosa; experiment: microbe, parasite or virus in culture; conditions: Pseudomonas aeruginosa
From the text: as §1, §2

[3] = system: S. marcescens; experiment: microbe, parasite or virus in culture; conditions: Serratia marcescens
From the text: as §1, §2

[4] = system: S. paratyphi; experiment: microbe, parasite or virus in culture; conditions: Salmonella enterica, strain 527, AmpC/TEM-1
From the text: as §1, §2

[5] = system: S. typhi; experiment: microbe, parasite or virus in culture; conditions: Salmonella enterica, strain 26A, AmpC/TEM-1
From the text: as §1, §2

[6] = system: M. morgannii; experiment: organism not typed; conditions: strain 769909; OXA-48
From the text: as §1, §2

Q: For `CO/N=C(\C(=O)N[C@@H]1C(=O)N2C(C(=O)[O-])=C(C[N+]3(C)CCCC3)CS[C@H]12)c1csc(N)n1` [FEP], which MIC ([1]; strain 1280442, SHV-OSBL(b)/VIM-1) is on record?
A: 16 µg/mL

Q: And the MIC ([1]; strain CDC-0003, KPC)?
A: 32 µg/mL

Q: And the MIC ([1]; strain CDC-0049, NDM)?
A: ≥ 256 µg/mL

Q: And the MIC ([1]; strain CDC-0117, KPC-3)?
A: 64 µg/mL

Q: What about the MIC ([1]; strain CDC-0125, KPC-3) of the same molecule?
A: 64 µg/mL

Q: And the MIC ([1]; strain CDC-0139, NDM-1)?
A: ≥ 256 µg/mL

Q: What about the MIC ([1]; strain CDC-0145, NDM) of the same molecule?
A: ≥ 256 µg/mL

Q: What about the MIC ([1]; strain CDC-0148, NDM) of the same molecule?
A: 128 µg/mL

Q: And the MIC ([1]; strain CDC-0152, NDM)?
A: ≥ 256 µg/mL

Q: What about the MIC ([1]; strain DOV, OXA-48) of the same molecule?
A: 32 µg/mL

Q: What about the MIC ([1]; strain ESBL8 #1, TEM-1/SHV-12) of the same molecule?
A: 4 µg/mL

Q: What about the MIC ([1]; strain ESBL 10, SHV-12/TEM-1) of the same molecule?
A: 8 µg/mL

Q: And the MIC ([1]; strain KIRK, OXA-162)?
A: 16 µg/mL

Q: And the MIC ([1]; strain KP 3, SHV-1/TEM-1)?
A: 16 µg/mL

Q: What about the MIC ([1]; strain KPN 508, SHV-7/TEM-1) of the same molecule?
A: 8 µg/mL

Q: And the MIC ([1]; strain SI-C05, OXA-48)?
A: 16 µg/mL

Q: And the MIC ([1]; strain SI-F100, SHV-5/TEM-1/CMY-2)?
A: 1 µg/mL

Q: What about the MIC ([1]; strain SI-KP NO30, TEM-26b/SHV-60/SHV-26) of the same molecule?
A: 16 µg/mL

Q: What about the MIC [2] of the same molecule?
A: 16 µg/mL

Q: And the MIC ([2]; ATCC27853, P. aeruginosa ATCC 27853, PDC-5, read-out: MIC)?
A: 1 µg/mL

Q: What about the MIC ([2]; ATCC27853, strain ATCC 27853, W.T., read-out: MIC) of the same molecule?
A: 1 µg/mL

Q: And the MIC ([2]; P. aeruginosa CDC-0457, VIM, read-out: MIC)?
A: 16 µg/mL

Q: And the MIC ([2]; P. aeruginosa PS-12 (ST-235, VIM-2), BLI fixed at 4 μg/ml, read-out: MIC)?
A: 32 µg/mL

Q: And the MIC ([2]; strain 10.257, PDC-50, read-out: MIC)?
A: 32 µg/mL

Q: And the MIC ([2]; strain 11.516, PDC-79, read-out: MIC)?
A: 16 µg/mL

Q: What about the MIC ([2]; strain 11.698, PDC-87, read-out: MIC) of the same molecule?
A: 128 µg/mL

Q: And the MIC ([2]; strain 11.813, PDC-91, read-out: MIC)?
A: ≥ 256 µg/mL

Q: And the MIC ([2]; strain 13.1716, PDC-74, read-out: MIC)?
A: 128 µg/mL

Q: What about the MIC ([2]; strain 13.1717, PDC-74, read-out: MIC) of the same molecule?
A: 64 µg/mL

Q: What about the MIC ([2]; strain 13.1737, PDC-80, read-out: MIC) of the same molecule?
A: 16 µg/mL

Q: And the MIC ([2]; strain 13.1755, PDC-86, read-out: MIC)?
A: 16 µg/mL

Q: What about the MIC ([2]; strain 13.1760, PDC-77, read-out: MIC) of the same molecule?
A: 16 µg/mL

Q: And the MIC ([2]; strain 13.1775, PDC-87, read-out: MIC)?
A: 64 µg/mL

Q: What about the MIC ([2]; strain 247.3D, VIM-2, read-out: MIC) of the same molecule?
A: 32 µg/mL

Q: What about the MIC ([2]; strain 1129, PDC, read-out: MIC) of the same molecule?
A: 4 µg/mL

Q: What about the MIC ([2]; strain 3615, PDC/TEM-1, read-out: MIC) of the same molecule?
A: 16 µg/mL

Q: And the MIC ([2]; strain 5671, VIM-1, read-out: MIC)?
A: 16 µg/mL

Q: What about the MIC ([2]; strain 8273, PDC/TEM-1, read-out: MIC) of the same molecule?
A: 8 µg/mL

Q: What about the MIC ([2]; strain 164951, W.T., read-out: MIC) of the same molecule?
A: 1 µg/mL

Q: What about the MIC ([2]; strain 377860, W.T., read-out: MIC) of the same molecule?
A: 4 µg/mL

Q: What about the MIC ([2]; strain 384743, PDC/TEM-1, read-out: MIC) of the same molecule?
A: 4 µg/mL

Q: What about the MIC ([2]; strain 1013996, KPC-2, read-out: MIC) of the same molecule?
A: ≥ 256 µg/mL

Q: What about the MIC ([2]; strain 1071703, GES-6, read-out: MIC) of the same molecule?
A: 16 µg/mL

Q: What about the MIC ([2]; strain 1113755, GES-5, read-out: MIC) of the same molecule?
A: 32 µg/mL

Q: And the MIC ([2]; strain 1138223, GES-19, read-out: MIC)?
A: ≥ 256 µg/mL

Q: And the MIC ([2]; strain 1138337, GES-19, read-out: MIC)?
A: ≥ 256 µg/mL

Q: What about the MIC ([2]; strain 1258509, GES-6, read-out: MIC) of the same molecule?
A: 32 µg/mL

Q: What about the MIC ([2]; strain 1275655, GES-20, read-out: MIC) of the same molecule?
A: ≥ 256 µg/mL

Q: What about the MIC ([2]; strain 1300089, GES-19, read-out: MIC) of the same molecule?
A: ≥ 256 µg/mL

Q: What about the MIC ([2]; strain 1313666, KPC-2, read-out: MIC) of the same molecule?
A: ≥ 256 µg/mL

Q: And the MIC ([2]; strain CDC-0090, KPC, read-out: MIC)?
A: 128 µg/mL

Q: What about the MIC ([2]; strain PA2, W.T., read-out: MIC) of the same molecule?
A: 8 µg/mL

Q: And the MIC ([2]; strain PAA1-9G1, GES-5, read-out: MIC)?
A: ≥ 256 µg/mL

Q: What about the MIC ([2]; strain PAA1-9G2, GES-5, read-out: MIC) of the same molecule?
A: ≥ 256 µg/mL

Q: What about the MIC ([2]; strain PS-12, VIM-2, read-out: MIC) of the same molecule?
A: 32 µg/mL

Q: And the MIC ([2]; strain PS-32, VIM-2, read-out: MIC)?
A: 8 µg/mL

Q: And the MIC ([2]; strain Paeβ-04, 100-fold ↑ PDC-2/30% OprD/5.6x ↑ABM, read-out: MIC)?
A: 16 µg/mL

Q: And the MIC ([2]; strain Paeβ-10, 67-fold ↑ PDC-2/0.1% OprD/5.7x↑ABM, read-out: MIC)?
A: 16 µg/mL

Q: What about the MIC ([2]; strain Paeβ-15, 310-fold ↑ PDC-2/10% OprD/4.4x↑XYM, read-out: MIC) of the same molecule?
A: 128 µg/mL

Q: What about the MIC ([2]; strain Paeβ-18, 600-fold ↑ PDC-3/<0.01% OprD/3.9x and 5.6x ↑ABM and XYM, read-out: MIC) of the same molecule?
A: 64 µg/mL

Q: What about the MIC ([2]; strain Paeβ-21, 200-fold ↑ PDC-4/10% OprD/13.5x ↑XYM, read-out: MIC) of the same molecule?
A: 16 µg/mL

Q: What about the MIC ([2]; strain Ps296, VIM-2, read-out: MIC) of the same molecule?
A: 4 µg/mL

Q: And the MIC ([3]; strain 134434, AmpC/SHV-12/TEM-1)?
A: 4 µg/mL

Q: And the MIC ([3]; strain 192476, AmpC/TEM-1/SHV-5)?
A: 4 µg/mL

Q: And the MIC ([3]; strain 192478, AmpC/SHV-12/TEM-1)?
A: 4 µg/mL

Q: What about the MIC ([3]; strain 218073, AmpC/SHV-7/TEM-1) of the same molecule?
A: 2 µg/mL

Q: And the MIC [4]?
A: 64 µg/mL

Q: What about the MIC [5] of the same molecule?
A: 4 µg/mL

Q: What about the MIC [6] of the same molecule?
A: 0.06 µg/mL
